Converted amounts (≈) assume the structure as drawn.
How the values were obtained:
Assay in all cases: in vitro antibacterial activity (MIC), agar dilution
Assay type in all cases: cell-based
Candida albicans CCH 442 = conditions: organism code TT; BHI agar, 35-37° C., 20 to 24 hours; unit assumed
Method in brief: (§1)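 Endpoint: lowest concentration with no growth, slight haze or sparsely isolated colonies at the inoculum spot, judged against a compound-free BHI control. Strains were replicator-inoculated at 1:100 (1:10 for Streptococcus and other slow growers).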

[1] = system: Enterococcus faecium ATCC 8043; conditions: organism code II; BHI agar, 35-37° C., 20 to 24 hours; unit assumed
Method in brief: as §1

Escherichia coli DC-2 = conditions: organism code SS; BHI agar, 35-37° C., 20 to 24 hours; unit assumed
Method in brief: as §1

Escherichia coli JUHL = conditions: organism code QQ; BHI agar, 35-37° C., 20 to 24 hours; unit assumed
Method in brief: as §1

Escherichia coli SS = conditions: organism code RR; BHI agar, 35-37° C., 20 to 24 hours; unit assumed
Method in brief: as §1

[2] = system: Haemophilis Influenzae DILL AMP R; conditions: organism code WW; BHI agar, 35-37° C., 20 to 24 hours; unit assumed
Method in brief: as §1

[3] = system: Micrococcus luteus ATCC 4698; conditions: organism code PP; BHI agar, 35-37° C., 20 to 24 hours; unit assumed
Method in brief: (§2)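 Agar dilution on BHI agar with twelve successive compound dilutions; plates inoculated by Steers replicator with 1:100 culture dilutions (1:10 for slow growers such as Streptococcus). MIC is the lowest concentration giving no growth, slight haze or sparse colonies versus a drug-free control.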

[4] = system: Micrococcus luteus ATCC 9341; conditions: organism code OO; BHI agar, 35-37° C., 20 to 24 hours; unit assumed
Method in brief: as §2

[5] = system: Mycobacterium smegmatis ATCC 114; conditions: organism code UU; BHI agar, 35-37° C., 20 to 24 hours; unit assumed
Method in brief: as §1

[6] = system: Nocardia Asteroides ATCC9970; conditions: organism code VV; BHI agar, 35-37° C., 20 to 24 hours; unit assumed
Method in brief: as §1

[7] = system: Staphylococcus aureus 1775; conditions: organism code GG; BHI agar, 35-37° C., 20 to 24 hours; unit assumed
Method in brief: as §1

[8] = system: Staphylococcus aureus A-5278; conditions: organism code CC; BHI agar, 35-37° C., 20 to 24 hours; unit assumed
Method in brief: as §1

[9] = system: Staphylococcus aureus A5177; conditions: organism code BB; BHI agar, 35-37° C., 20 to 24 hours; unit assumed
Method in brief: as §1

[10] = system: Staphylococcus aureus ATCC 6538P; conditions: organism code AA; BHI agar, 35-37° C., 20 to 24 hours; unit assumed
Method in brief: as §1

[11] = system: Staphylococcus aureus CMX 553; conditions: organism code FF; BHI agar, 35-37° C., 20 to 24 hours; unit assumed
Method in brief: as §1

[12] = system: Staphylococcus aureus CMX 642A; conditions: organism code DD; BHI agar, 35-37° C., 20 to 24 hours; unit assumed
Method in brief: as §1

[13] = system: Staphylococcus aureus NCTC10649M; conditions: organism code EE; BHI agar, 35-37° C., 20 to 24 hours; unit assumed
Method in brief: as §1

[14] = system: Staphylococcus epidermidis 3519; conditions: organism code HH; BHI agar, 35-37° C., 20 to 24 hours; unit assumed
Method in brief: as §1

[15] = system: Streptococcus Pneumonia 5649; conditions: organism code ZZA; BHI agar, 35-37° C., 20 to 24 hours; unit assumed
Method in brief: as §1

[16] = system: Streptococcus Pneumonia 5979; conditions: organism code ZZ; BHI agar, 35-37° C., 20 to 24 hours; unit assumed
Method in brief: as §1

[17] = system: Streptococcus Pneumonia ATCC6303; conditions: organism code XX; BHI agar, 35-37° C., 20 to 24 hours; unit assumed
Method in brief: as §1

[18] = system: Streptococcus Pneumonia GYR 1171; conditions: organism code YY; BHI agar, 35-37° C., 20 to 24 hours; unit assumed
Method in brief: as §1

[19] = system: Streptococcus agalactiae CMX 508; conditions: organism code KK; BHI agar, 35-37° C., 20 to 24 hours; unit assumed
Method in brief: as §1

[20] = system: Streptococcus bovis A-5169; conditions: organism code JJ; BHI agar, 35-37° C., 20 to 24 hours; unit assumed
Method in brief: as §1

[21] = system: Streptococcus pyogenes 930; conditions: organism code MM; BHI agar, 35-37° C., 20 to 24 hours; unit assumed
Method in brief: as §1

[22] = system: Streptococcus pyogenes EES61; conditions: organism code LL; BHI agar, 35-37° C., 20 to 24 hours; unit assumed
Method in brief: as §1

[23] = system: Streptococcus pyogenes PIU 2548; conditions: organism code NN; BHI agar, 35-37° C., 20 to 24 hours; unit assumed
Method in brief: as §1

| SMILES | MIC (Candida albicans CCH 442) [µg/mL] | MIC [1] [µg/mL] | MIC (Escherichia coli DC-2) [µg/mL] | MIC (Escherichia coli JUHL) [µg/mL] | MIC (Escherichia coli SS) [µg/mL] | MIC [2] [µg/mL] | MIC [3] [µg/mL] | MIC [4] [µg/mL] | MIC [5] [µg/mL] | MIC [6] [µg/mL] | MIC [7] [µg/mL] | MIC [8] [µg/mL] | MIC [9] [µg/mL] | MIC [10] [µg/mL] | MIC [11] [µg/mL] | MIC [12] [µg/mL] | MIC [13] [µg/mL] | MIC [14] [µg/mL] | MIC [15] [µg/mL] | MIC [16] [µg/mL] | further results |
| --- | --- | --- | --- | --- | --- | --- | --- | --- | --- | --- | --- | --- | --- | --- | --- | --- | --- | --- | --- | --- | --- |
| CC[C@H]1OC(=O)[C@H](C)C(=O)[C@H](C)[C@@H](O[C@@H]2O[C@H](C)C[C@H](N(C)C)[C@H]2O)[C@](C)(OC/C=C/c2nc(-c3cccs3)cs2)C[C@@H](C)C(=O)[C@H](C)[C@H]2NC(=O)O[C@@]21C [Example 67] | > 100 | 0.05 (≈ 0.0622 µM) | > 100 | > 100 | 0.78 (≈ 0.97 µM) | 8 (≈ 9.95 µM) | 0.1 (≈ 0.124 µM) | 0.02 (≈ 0.0249 µM) | 0.39 (≈ 0.485 µM) | 0.1 (≈ 0.124 µM) | > 100 | > 100 | 0.1 (≈ 0.124 µM) | 0.1 (≈ 0.124 µM) | 0.1 (≈ 0.124 µM) | 0.1 (≈ 0.124 µM) | 0.1 (≈ 0.124 µM) | 0.1 (≈ 0.124 µM) | 0.25 (≈ 0.311 µM) | 32 (≈ 39.8 µM) | MIC [17]: 0.03 µg/mL (≈ 0.0373 µM); MIC [18]: 0.03 µg/mL (≈ 0.0373 µM); MIC [19]: 0.01 µg/mL (≈ 0.0124 µM); MIC [20]: 0.01 µg/mL (≈ 0.0124 µM); MIC [21]: 12.5 µg/mL (≈ 15.5 µM); MIC [22]: 0.01 µg/mL (≈ 0.0124 µM); MIC [23]: 0.1 µg/mL (≈ 0.124 µM) |
| CC[C@H]1OC(=O)[C@H](C)C(=O)[C@H](C)[C@@H](O[C@@H]2O[C@H](C)C[C@H](N(C)C)[C@H]2O)[C@](C)(OC/C=C/c2cnc(-c3cccnc3)s2)C[C@@H](C)C(=O)[C@H](C)[C@H]2NC(=O)O[C@@]21C [Example 55] | > 100 | 0.05 (≈ 0.0626 µM) | 50 (≈ 62.6 µM) | 50 (≈ 62.6 µM) | 0.39 (≈ 0.488 µM) | 4 (≈ 5.01 µM) | 0.2 (≈ 0.25 µM) | 0.02 (≈ 0.025 µM) | 0.39 (≈ 0.488 µM) | 0.02 (≈ 0.025 µM) | > 100 | > 100 | 0.05 (≈ 0.0626 µM) | 0.1 (≈ 0.125 µM) | 0.05 (≈ 0.0626 µM) | 0.05 (≈ 0.0626 µM) | 0.1 (≈ 0.125 µM) | 0.1 (≈ 0.125 µM) | 0.25 (≈ 0.313 µM) | 2 (≈ 2.5 µM) | MIC [17]: 0.03 µg/mL (≈ 0.0375 µM); MIC [18]: 0.03 µg/mL (≈ 0.0375 µM); MIC [19]: 0.05 µg/mL (≈ 0.0626 µM); MIC [20]: ≤ 0.005 µg/mL; MIC [21]: 25 µg/mL (≈ 31.3 µM); MIC [22]: 0.05 µg/mL (≈ 0.0626 µM); MIC [23]: 0.2 µg/mL (≈ 0.25 µM) |
| CC[C@H]1OC(=O)[C@H](C)C(=O)[C@H](C)[C@@H](O[C@@H]2O[C@H](C)C[C@H](N(C)C)[C@H]2O)[C@](C)(OC/C=C/c2cnc(-c3cncnc3)s2)C[C@@H](C)C(=O)[C@H](C)[C@H]2NC(=O)O[C@@]21C [Example 59] | > 100 | 0.02 (≈ 0.025 µM) | 50 (≈ 62.5 µM) | 50 (≈ 62.5 µM) | 0.2 (≈ 0.25 µM) | 4 (≈ 5 µM) | 0.1 (≈ 0.125 µM) | 0.01 (≈ 0.0125 µM) | 3.1 (≈ 3.88 µM) | 0.02 (≈ 0.025 µM) | > 100 | > 100 | 0.1 (≈ 0.125 µM) | 0.1 (≈ 0.125 µM) | 0.1 (≈ 0.125 µM) | 0.1 (≈ 0.125 µM) | 0.1 (≈ 0.125 µM) | 0.1 (≈ 0.125 µM) | 0.5 (≈ 0.625 µM) | 4 (≈ 5 µM) | MIC [17]: ≤ 0.004 µg/mL; MIC [18]: ≤ 0.004 µg/mL; MIC [19]: 0.01 µg/mL (≈ 0.0125 µM); MIC [20]: ≤ 0.005 µg/mL; MIC [21]: 6.2 µg/mL (≈ 7.75 µM); MIC [22]: 0.01 µg/mL (≈ 0.0125 µM); MIC [23]: 0.2 µg/mL (≈ 0.25 µM) |
| CC[C@H]1OC(=O)[C@H](C)C(=O)[C@H](C)[C@@H](O[C@@H]2O[C@H](C)C[C@H](N(C)C)[C@H]2O)[C@](C)(OCC#Cc2ccc(-c3ccc(C=O)o3)cc2)C[C@@H](C)C(=O)[C@H](C)[C@H]2NC(=O)O[C@@]21C [Example 24] | > 100 | 0.2 (≈ 0.248 µM) | > 100 | > 100 | 1.56 (≈ 1.93 µM) | 8 (≈ 9.91 µM) | 0.39 (≈ 0.483 µM) | 0.02 (≈ 0.0248 µM) | 3.1 (≈ 3.84 µM) | 0.1 (≈ 0.124 µM) | > 100 | > 100 | 0.39 (≈ 0.483 µM) | 0.39 (≈ 0.483 µM) | 0.39 (≈ 0.483 µM) | 0.39 (≈ 0.483 µM) | 0.39 (≈ 0.483 µM) | 0.39 (≈ 0.483 µM) | 0.25 (≈ 0.31 µM) | 2 (≈ 2.48 µM) | MIC [17]: 0.03 µg/mL (≈ 0.0372 µM); MIC [18]: 0.03 µg/mL (≈ 0.0372 µM); MIC [19]: 0.1 µg/mL (≈ 0.124 µM); MIC [20]: 0.1 µg/mL (≈ 0.124 µM); MIC [21]: 25 µg/mL (≈ 31 µM); MIC [22]: 0.1 µg/mL (≈ 0.124 µM); MIC [23]: 0.78 µg/mL (≈ 0.967 µM) |

Source: patent US6054435A, “6-O-substituted macrolides having antibacterial activity” (priority 1999, dated 2000)
